Results taken from patent publication US20120258980A1, “Antibacterial Agent for Drug-Resistant Bacteria, Method for Screening for Same, and Use of Same” (priority 2009, published 2012).
Values after ≈ are worked out from the molar mass of the structure shown.

Tested on: VISA clinical isolates of MRSA (VI-MRSA) and of MSSA (VI-MSSA)
Assay: microbe, parasite or virus in culture
Type: cell-based, Staphylococcus aureus
Description: Each of the bacterial strains listed in Table 1-1 was shake-cultured at 37° C. overnight in 4 mL of a medium (Tryptical Soy Broth: TSB, product of Becton Dickinson and Company). FDA209P was used as a control.
After completion of culturing, the resultant culture was suspended in a cation-adjusted Mueller Hinton Broth (CAMHB, product of Becton Dickinson and Company). Then, the obtained bacterial culture was adjusted in absorbance with the CAMHB so that the absorbance at 578 nm of the bacterial culture was adjusted to 0.3 measured by an absorption spectrometer. In addition, the resultant bacterial culture was 500-fold diluted with the CAMHB.
Each of the 500-fold diluted, pre-cultured bacterial cultures was added at 50 μL/well to the CAMHB containing the quinolones and the nybomycins at various concentrations (50 μL/well), followed by statically culturing at 37° C. overnight.
After completion of culturing, the growth of the bacteria was visually determined based on turbidity to measure MIC in each bacterial strain.
Here, the glycopeptides used were VCM and TEIC. The β-lactam used was OXA.

[1] = Staphylococcus aureus, 99/3700-W, VI-MRSA, The United Kingdom
[2] = Staphylococcus aureus, 99/3759-V, VI-MRSA, The United Kingdom
[3] = Staphylococcus aureus, 28160, VI-MRSA, South African Republic
[4] = Staphylococcus aureus, 98141, VI-MRSA, France
[5] = Staphylococcus aureus, A7 (JCSC4842), VI-MRSA, Taiwan
[6] = Staphylococcus aureus, AMC11094, VI-MRSA, Korea
[7] = Staphylococcus aureus, B7 (JCSC4852), VI-MRSA, Taiwan
[8] = Staphylococcus aureus, BR1, VI-MRSA, Brazil
[9] = Staphylococcus aureus, BR2, VI-MRSA, Brazil
[10] = Staphylococcus aureus, BR3, VI-MRSA, Brazil
[11] = Staphylococcus aureus, BR4, VI-MRSA, Brazil
[12] = Staphylococcus aureus, BR5, VI-MRSA, Brazil
[13] = Staphylococcus aureus, HIP06297, VI-MRSA, America
[14] = Staphylococcus aureus, HIP06854, VI-MRSA, America
[15] = Staphylococcus aureus, HIP07920, VI-MRSA, America
[16] = Staphylococcus aureus, HIP07930, VI-MRSA, America
[17] = Staphylococcus aureus, HIP08926, VI-MRSA, America
[18] = Staphylococcus aureus, HIP09143, VI-MRSA, America
[19] = Staphylococcus aureus, HIP09313, VI-MRSA, America
[20] = Staphylococcus aureus, HIP09433, VI-MRSA, America
[21] = Staphylococcus aureus, HIP09662, VI-MRSA, America
[22] = Staphylococcus aureus, HIP09735, VI-MRSA, America
[23] = Staphylococcus aureus, HIP09737, VI-MSSA, America
[24] = Staphylococcus aureus, HIP09740, VI-MRSA, America
[25] = Staphylococcus aureus, HIP10267, VI-MRSA, America
[26] = Staphylococcus aureus, HIP10540, VI-MRSA, America
[27] = Staphylococcus aureus, HIP12864, VI-MRSA, America
[28] = Staphylococcus aureus, HIP13036, VI-MRSA, America
[29] = Staphylococcus aureus, HIP13057, VI-MRSA, America
[30] = Staphylococcus aureus, IL (HIP7737), VI-MRSA, America
[31] = Staphylococcus aureus, JCSC7193, VI-MRSA, Thailand
[32] = Staphylococcus aureus, JCSC7195, VI-MRSA, Thailand
[33] = Staphylococcus aureus, JCSC7203, VI-MRSA, Thailand
[34] = Staphylococcus aureus, LIM2, VI-MRSA, France
[35] = Staphylococcus aureus, LY-1999-01, VI-MSSA, Oman
[36] = Staphylococcus aureus, LY-1999-03, VI-MRSA, Oman
[37] = Staphylococcus aureus, MI (HIP5827), VI-MRSA, America
[38] = Staphylococcus aureus, MRSA / MSSA / NRS 76 / VISA, NRS76, VI-MSSA, America
[39] = Staphylococcus aureus, MRSA / MSSA / NRS 79 / VISA, NRS79, VI-MRSA, America
[40] = Staphylococcus aureus, MRSA / MSSA / NRS 118 / VISA, NRS118, VI-MRSA, America
[41] = Staphylococcus aureus, MRSA / MSSA / NRS 126 / VISA, NRS126, VI-MRSA, America
[42] = Staphylococcus aureus, Mu3, VI-MRSA, Japan
[43] = Staphylococcus aureus, Mu50, VI-MRSA, Japan
[44] = Staphylococcus aureus, NJ (HIP5836), VI-MRSA, America
[45] = Staphylococcus aureus, P1V44, VI-MSSA, Belgium
[46] = Staphylococcus aureus, PC, VI-MRSA, America
[47] = Staphylococcus aureus, SA MER-S6, VI-MSSA, France
[48] = Staphylococcus aureus, SA MER-S12, VI-MSSA, France
[49] = Staphylococcus aureus, SA MER-S20, VI-MSSA, France

SMILES: Cc1onc(-c2ccccc2)c1C(=O)N[C@@H]1C(=O)N2[C@@H]1SC(C)(C)[C@@H]2C(=O)O [OXA, oxacillin]
- MIC [1]: 512 µg/mL (≈ 1280 µM)
- MIC [2]: 512 µg/mL (≈ 1280 µM)
- MIC [3]: 32 µg/mL (≈ 79.7 µM)
- MIC [4]: > 128 µg/mL
- MIC [5]: 128 µg/mL (≈ 319 µM)
- MIC [6]: 512 µg/mL (≈ 1280 µM)
- MIC [7]: 128 µg/mL (≈ 319 µM)
- MIC [8]: 256 µg/mL (≈ 638 µM)
- MIC [9]: 64 µg/mL (≈ 159 µM)
- MIC [10]: 64 µg/mL (≈ 159 µM)
- MIC [11]: 512 µg/mL (≈ 1280 µM)
- MIC [12]: 512 µg/mL (≈ 1280 µM)
- MIC [13]: 512 µg/mL (≈ 1280 µM)
- MIC [14]: 128 µg/mL (≈ 319 µM)
- MIC [15]: 128 µg/mL (≈ 319 µM)
- MIC [16]: 32 µg/mL (≈ 79.7 µM)
- MIC [17]: 512 µg/mL (≈ 1280 µM)
- MIC [18]: 512 µg/mL (≈ 1280 µM)
- MIC [19]: 512 µg/mL (≈ 1280 µM)
- MIC [20]: 256 µg/mL (≈ 638 µM)
- MIC [21]: 512 µg/mL (≈ 1280 µM)
- MIC [22]: 512 µg/mL (≈ 1280 µM)
- MIC [23]: 1 µg/mL (≈ 2.49 µM)
- MIC [24]: 512 µg/mL (≈ 1280 µM)
- MIC [25]: 4 µg/mL (≈ 9.96 µM)
- MIC [26]: 64 µg/mL (≈ 159 µM)
- MIC [27]: 1020 µg/mL (≈ 2550 µM)
- MIC [28]: 32 µg/mL (≈ 79.7 µM)
- MIC [29]: 4 µg/mL (≈ 9.96 µM)
- MIC [30]: 64 µg/mL (≈ 159 µM)
- MIC [31]: > 128 µg/mL
- MIC [32]: > 128 µg/mL
- MIC [33]: 128 µg/mL (≈ 319 µM)
- MIC [34]: 32 µg/mL (≈ 79.7 µM)
- MIC [35]: 1 µg/mL (≈ 2.49 µM)
- MIC [36]: 1020 µg/mL (≈ 2550 µM)
- MIC [37]: 512 µg/mL (≈ 1280 µM)
- MIC [38]: 1 µg/mL (≈ 2.49 µM)
- MIC [39]: 256 µg/mL (≈ 638 µM)
- MIC [40]: 1020 µg/mL (≈ 2550 µM)
- MIC [41]: 256 µg/mL (≈ 638 µM)
- MIC [42]: 512 µg/mL (≈ 1280 µM)
- MIC [43]: 512 µg/mL (≈ 1280 µM)
- MIC [44]: 64 µg/mL (≈ 159 µM)
- MIC [45]: 2 µg/mL (≈ 4.98 µM)
- MIC [46]: 4 µg/mL (≈ 9.96 µM)
- MIC [47]: 1 µg/mL (≈ 2.49 µM)
- MIC [48]: 1 µg/mL (≈ 2.49 µM)
- MIC [49]: 1 µg/mL (≈ 2.49 µM)

SMILES: CN[C@H](CC(C)C)C(=O)N[C@H]1C(=O)N[C@@H](CC(N)=O)C(=O)N[C@H]2C(=O)N[C@H]3C(=O)N[C@H](C(=O)N[C@H](C(=O)O)c4cc(O)cc(O)c4-c4cc3ccc4O)[C@H](O)c3ccc(c(Cl)c3)Oc3cc2cc(c3O[C@@H]2O[C@H](CO)[C@@H](O)[C@H](O)[C@H]2O[C@H]2C[C@](C)(N)[C@H](O)[C@H](C)O2)Oc2ccc(cc2Cl)[C@H]1O [VCM, vancomycin]
- MIC [1]: 2 µg/mL (≈ 1.38 µM)
- MIC [2]: 2 µg/mL (≈ 1.38 µM)
- MIC [3]: 4 µg/mL (≈ 2.76 µM)
- MIC [4]: 2 µg/mL (≈ 1.38 µM)
- MIC [5]: 3 µg/mL (≈ 2.07 µM)
- MIC [6]: 4 µg/mL (≈ 2.76 µM)
- MIC [7]: 4 µg/mL (≈ 2.76 µM)
- MIC [8]: 2 µg/mL (≈ 1.38 µM)
- MIC [9]: 4 µg/mL (≈ 2.76 µM)
- MIC [10]: 8 µg/mL (≈ 5.52 µM)
- MIC [11]: 8 µg/mL (≈ 5.52 µM)
- MIC [12]: 8 µg/mL (≈ 5.52 µM)
- MIC [13]: 4 µg/mL (≈ 2.76 µM)
- MIC [14]: 4 µg/mL (≈ 2.76 µM)
- MIC [15]: 2 µg/mL (≈ 1.38 µM)
- MIC [16]: 4 µg/mL (≈ 2.76 µM)
- MIC [17]: 4 µg/mL (≈ 2.76 µM)
- MIC [18]: 4 µg/mL (≈ 2.76 µM)
- MIC [19]: 4 µg/mL (≈ 2.76 µM)
- MIC [20]: 2 µg/mL (≈ 1.38 µM)
- MIC [21]: 4 µg/mL (≈ 2.76 µM)
- MIC [22]: 4 µg/mL (≈ 2.76 µM)
- MIC [23]: 4 µg/mL (≈ 2.76 µM)
- MIC [24]: 1 µg/mL (≈ 0.69 µM)
- MIC [25]: 4 µg/mL (≈ 2.76 µM)
- MIC [26]: 4 µg/mL (≈ 2.76 µM)
- MIC [27]: 4 µg/mL (≈ 2.76 µM)
- MIC [28]: 8 µg/mL (≈ 5.52 µM)
- MIC [29]: 4 µg/mL (≈ 2.76 µM)
- MIC [30]: 4 µg/mL (≈ 2.76 µM)
- MIC [31]: 4 µg/mL (≈ 2.76 µM)
- MIC [32]: 1 µg/mL (≈ 0.69 µM)
- MIC [33]: 2 µg/mL (≈ 1.38 µM)
- MIC [34]: 2 µg/mL (≈ 1.38 µM)
- MIC [35]: 4 µg/mL (≈ 2.76 µM)
- MIC [36]: 4 µg/mL (≈ 2.76 µM)
- MIC [37]: 8 µg/mL (≈ 5.52 µM)
- MIC [38]: 2 µg/mL (≈ 1.38 µM)
- MIC [39]: 2 µg/mL (≈ 1.38 µM)
- MIC [40]: 8 µg/mL (≈ 5.52 µM)
- MIC [41]: 4 µg/mL (≈ 2.76 µM)
- MIC [42]: 0.5 µg/mL (≈ 0.345 µM)
- MIC [43]: 8 µg/mL (≈ 5.52 µM)
- MIC [44]: 8 µg/mL (≈ 5.52 µM)
- MIC [45]: 2 µg/mL (≈ 1.38 µM)
- MIC [46]: 8 µg/mL (≈ 5.52 µM)
- MIC [47]: 4 µg/mL (≈ 2.76 µM)
- MIC [48]: 4 µg/mL (≈ 2.76 µM)
- MIC [49]: 4 µg/mL (≈ 2.76 µM)
